Twelve molecules from PubChem BioAssay (NCI) can be followed below.

Among the test systems are OVCAR-3 ovarian; TK-10 renal; HOP-62 NSCLC; OVCAR-5 ovarian; NCI-H226 lung; SNB-19 CNS; LOX IMVI melanoma; NCI-H460 lung; RPMI-8226 leukemia; SNB-75 CNS.
Assay in all cases: NCI anticancer screen, dose series, 48 h

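Briefly, cells in 96-well plates were exposed to five compound concentrations for 48 h, and endpoints were estimated by linear interpolation. GI50 marks 50% less growth. TGI: total growth inhibition.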

With `O=c1c2ccccc2[nH]c2c(O)ccc(O)c12`, the TGI was 36.1 µM with OVCAR-3 ovarian; 52.6 µM in the experiment with TK-10 renal; above 100 µM in the experiment on HOP-62 NSCLC; above 100 µM with OVCAR-5 ovarian; 66.4 µM with NCI-H226 lung; above 100 µM in the experiment on SNB-19 CNS. Besides, the TGI in the experiment on LOX IMVI melanoma amounted to 33.9 µM; in the experiment on NCI-H460 lung, 50.9 µM; in the experiment with RPMI-8226 leukemia, 70.1 µM.
As for `O=C1C(=C2CCCC2)CCC1CN1CCCCC1` (stereo not drawn), the TGI with OVCAR-3 ovarian was 30.6 µM; with SNB-75 CNS, 15.5 µM; in the experiment with TK-10 renal it was 27.1 µM; in the experiment on OVCAR-5 ovarian it was 39.8 µM; with SNB-19 CNS, above 100 µM.
On to `Cc1coc2c1C(=O)C(=O)c1ccccc1-2`, for which the TGI turned out to be 3.29 µM in the experiment with OVCAR-3 ovarian; 3.15 µM in the experiment on SNB-75 CNS; 3.3 µM in the experiment with TK-10 renal; 3 µM in the experiment with HOP-62 NSCLC; 3.55 µM with OVCAR-5 ovarian; 2.55 µM in the experiment with NCI-H226 lung. Moreover, the TGI in the experiment with LOX IMVI melanoma was found to be 1.05 µM; in the experiment with NCI-H460 lung it was 3.18 µM.
On to `O=C1/C=C/[C@@H](O)[C@@H]2C[C@@H](O)C[C@H]2/C=C/CCC[C@H](CCc2ccc3ncccc3c2)O1`, for which the GI50 in the experiment with OVCAR-3 ovarian is 0.518 µM; with SNB-75 CNS it was 0.101 µM; with TK-10 renal, 0.265 µM; in the experiment with HOP-62 NSCLC, 0.317 µM; in the experiment on OVCAR-5 ovarian, 0.42 µM; in the experiment on SNB-19 CNS, 0.4 µM. The GI50 in the experiment with LOX IMVI melanoma is 0.152 µM; with NCI-H460 lung, 0.36 µM; in the experiment with RPMI-8226 leukemia, 0.243 µM. Further, the TGI in the experiment on OVCAR-3 ovarian was above 100 µM; with SNB-75 CNS, above 29.8 µM; with TK-10 renal, 0.821 µM; with OVCAR-5 ovarian it was above 100 µM; in the experiment on SNB-19 CNS it was above 100 µM; in the experiment on LOX IMVI melanoma it was 0.333 µM. The TGI in the experiment with NCI-H460 lung is above 46.8 µM; in the experiment on RPMI-8226 leukemia it was 5.89 µM.
As for `CC1(C)CCCC2(C)C3C(O)CC2(C)C(O)C31` (stereo not drawn), the TGI with OVCAR-3 ovarian, with SNB-75 CNS, in the experiment with TK-10 renal, with HOP-62 NSCLC, with OVCAR-5 ovarian and in the experiment on NCI-H226 lung was above 100 µM throughout. Besides, the TGI in the experiment on SNB-19 CNS, in the experiment with LOX IMVI melanoma and with NCI-H460 lung was above 100 µM each time.
As to `[N-]=[N+]=NCCCn1c2c(c3ccc([N+](=O)[O-])cc3c1=O)C(=O)c1cc3c(cc1-2)OCO3`, the TGI in the experiment with OVCAR-3 ovarian is 2.87 µM; in the experiment on SNB-75 CNS, above 100 µM; in the experiment on TK-10 renal, 19.9 µM; in the experiment on OVCAR-5 ovarian it was 2.1 µM; with NCI-H226 lung, 2.34 µM; in the experiment on SNB-19 CNS, above 100 µM. For the same molecule, the values for the TGI in the experiment on LOX IMVI melanoma and in the experiment with NCI-H460 lung were 1.02 µM and 0.501 µM, respectively. In addition, the GI50 is 2.26 µM in the experiment on TK-10 renal; 0.215 µM in the experiment with OVCAR-5 ovarian; below 0.01 µM in the experiment with NCI-H226 lung; below 0.01 µM in the experiment with LOX IMVI melanoma; below 0.01 µM with NCI-H460 lung.
As for `Cc1cc(C(=O)/C=C/c2ccc[nH]2)ccc1-n1ccc(C(F)(F)F)n1`, the GI50 in the experiment on OVCAR-3 ovarian was 2.29 µM; with TK-10 renal it was 27.5 µM; in the experiment with HOP-62 NSCLC, 34.8 µM; in the experiment with OVCAR-5 ovarian it was above 100 µM; in the experiment on NCI-H226 lung it was 30 µM; with SNB-19 CNS, 21.4 µM. For the same molecule, the GI50 with LOX IMVI melanoma was 34.8 µM; in the experiment with NCI-H460 lung it was 24.3 µM; with RPMI-8226 leukemia, 0.592 µM. For the same molecule, the TGI was 6.78 µM in the experiment on OVCAR-3 ovarian; above 100 µM in the experiment on TK-10 renal; above 100 µM in the experiment with HOP-62 NSCLC; above 100 µM with OVCAR-5 ovarian; above 100 µM in the experiment on NCI-H226 lung; above 100 µM in the experiment on SNB-19 CNS. For the same molecule, the TGI with LOX IMVI melanoma is above 100 µM; with NCI-H460 lung, above 100 µM; in the experiment with RPMI-8226 leukemia it was 3.33 µM.
For `NCCCCCNc1noc(Cc2c[nH]c3cc(Br)ccc23)n1`, the GI50 was 1.4 µM in the experiment on OVCAR-3 ovarian; 7.66 µM with TK-10 renal; 3.79 µM with HOP-62 NSCLC; 5.29 µM with OVCAR-5 ovarian; 12.7 µM with NCI-H226 lung; 7.67 µM with SNB-19 CNS. In addition, the GI50 was 2.81 µM in the experiment with LOX IMVI melanoma, 3.12 µM in the experiment on NCI-H460 lung and 2.88 µM in the experiment with RPMI-8226 leukemia. Besides, the TGI turned out to be 3.39 µM with OVCAR-3 ovarian; 22.3 µM in the experiment with TK-10 renal; 29.3 µM with HOP-62 NSCLC; 24.6 µM with OVCAR-5 ovarian; 26.5 µM in the experiment with NCI-H226 lung; 25.6 µM with SNB-19 CNS. In addition, the TGI with LOX IMVI melanoma turned out to be 17.6 µM; in the experiment on NCI-H460 lung, 12 µM; in the experiment on RPMI-8226 leukemia, 25.2 µM.
Turning to `CC(=O)Oc1ccc2c(c1)[C@@]1(C)CCCC(C)(C)[C@@H]1CC2`, the GI50 in the experiment on OVCAR-3 ovarian is 15.8 µM; with HOP-62 NSCLC, 15.9 µM; with OVCAR-5 ovarian it was 22.3 µM; with NCI-H226 lung it was 18.5 µM; in the experiment on SNB-19 CNS, 19.6 µM; in the experiment with LOX IMVI melanoma, 17.7 µM. For the same molecule, the results for the GI50 in the experiment with NCI-H460 lung and with RPMI-8226 leukemia were 27.5 µM and 12.1 µM, respectively. Further, the TGI is 41.1 µM in the experiment with OVCAR-3 ovarian; 30.2 µM in the experiment on HOP-62 NSCLC; 40.5 µM in the experiment on OVCAR-5 ovarian; 37.4 µM with NCI-H226 lung; 39.4 µM with SNB-19 CNS; 32.1 µM in the experiment with LOX IMVI melanoma. For the same molecule, the TGI in the experiment on NCI-H460 lung is 90.5 µM; with RPMI-8226 leukemia, 30.3 µM.
For `Cc1ccc(S(=O)(=O)N/N=C(\c2nc3ccc([N+](=O)[O-])cc3[nH]c2=O)C(O)c2ccc([N+](=O)[O-])cc2)cc1` (stereo not drawn), the TGI in the experiment on OVCAR-3 ovarian, in the experiment with SNB-75 CNS, in the experiment on TK-10 renal, in the experiment on HOP-62 NSCLC, with OVCAR-5 ovarian and in the experiment on SNB-19 CNS was above 100 µM throughout. Moreover, the TGI with LOX IMVI melanoma, with NCI-H460 lung and in the experiment with RPMI-8226 leukemia was above 100 µM each time.
`NC(=S)N=Nc1c(O)[nH]c2c(Cl)cc(Cl)cc12`: the TGI was 34.8 µM with OVCAR-3 ovarian; 42.4 µM in the experiment on SNB-75 CNS; above 100 µM in the experiment with TK-10 renal; 49.4 µM in the experiment on HOP-62 NSCLC; above 100 µM with OVCAR-5 ovarian; 30.3 µM in the experiment with NCI-H226 lung. Also, the TGI in the experiment on SNB-19 CNS was above 100 µM; with LOX IMVI melanoma, 48 µM; in the experiment with NCI-H460 lung, above 100 µM.
Take `S=c1o[nH]c(-c2ccccc2)c1C=Nc1ccccc1`: the TGI in the experiment with SNB-75 CNS, in the experiment on TK-10 renal, with OVCAR-5 ovarian, in the experiment with SNB-19 CNS, in the experiment with LOX IMVI melanoma and with NCI-H460 lung was above 100 µM throughout. The molecule also returned a TGI in the experiment with RPMI-8226 leukemia above 100 µM.
